Test results from PMC7439407 (Science Advances, 2020).

Biological target: arginine repressor ArgR
Assay: SPR
Format: binding, Staphylococcus aureus

In the case of `O=c1oc2ccccc2c(O)c1C(c1ccc(Cl)c(Cl)c1)c1c(O)c2ccccc2oc1=O` [DCH, 3,3′-(3,4-dichlorobenzylidene)-bis-(4-hydroxycoumarin)], the Kd is reported as 82 nM.
